Test results as given in patent US20040014814A1, “Compositions and methods for delaying preventing rejuvenating or reversing senescence in cells” (priority 2000, published 2004).

Test system: MRC-5 cells
Test: Lifespan (population doublings) of MRC-5 cells in culture
Format: cell-based, human
Method: Cultures were split in a 1:4 ratio when flasks were approximately 70-80% confluent.
MRC -5 cells (fetal lung fibroblasts) were grown in Dulbecco's modification of Eagles' minimum essential medium (DMEM Gibco BRL Cat. No. 12800-017) containing 0.45% glucose, or MEM (Gibco BRL Cat. No. 612800-017) containing 0.1% glucose. Both media contained 10% fetal calf scrum (TRACE Biosciences Cat. No. 15-010-0500V) and Penicillin/Streptomycin 5000 IU, 5000 μg/ml (TRACE Biosciences Cat. No. 21-140-0100V). Cells were grown in […] flasks or in dishes (35 mm or 60 mm, Nunc) at 37° C. with 5% CO2. Cells were harvested with trypsin (TRACE Biosciences Cat. No. 21-163-0100V) and counted with a model ZF6 Coulter Counter. Cells were split in ratios of 1:2 or 1:4. Population doublings (PDs) were calculated from the ratio of the initial number of cells plated to the yield of cells after a period of time. This provides an accurate measure of cell growth, with the split ratios 1:2 and 1:4 corresponding to one and two passages respectively, which are broadly equivalent to population doublings. The media was changed every 5 days or when cells became confluent.
MRC-5 cells were used to observe the toxicity of a series of derivatives of carnosine on cell growth. Cell cultures were grown in DMEM media with 10% fetal calf serum and supplemented with the following carnosine analogues: carnosine ethyl ester, carnosine iso-propyl ester, carnosine n-butyl ester, carnosine n-hexyl ester, N-propyl carnosine, N-hexanoyl carnosine, N-trimethyl acetyl carnosine, N-acetyl carnosine methyl ester, N-acetyl carnosine ethyl ester and N-acetyl carnosine, at concentrations ranging between 1 mM to 20 mM. Cells were also grown in DMEM supplemented with carnosine at 20 mM. […] Even at lower concentrations cell morphology was that of cells that have reached senescence i.e. broad flat cells with long process reaching out to other cells. Cell numbers were less than in the control flasks. […] As shown in FIG. 1 Acetyl-carnosine achieved a lifespan 5 PDs greater than the control and 6.7 PDs greater than carnosine over a 43 day period. […] In the early phase of the experiment growth rates were markedly greater than with the other compounds (FIG. 1).
In fact all populations of MRC-5 cells grown in DMEM supplemented with acetyl-carnosine preserved a younger phenotype for much longer than cells grown in DMEM supplemented with carnosine or its analogues.
Under control conditions the range was 57.3-64.5 PDs (n=5). With the addition of carnosine (20mM) to the medium the range was 61.8-63.7 PDs (n=5) with an average increase of 1.4 PDs which represents a 3 fold increase in cell number. However, when acetyl-carnosine (5 mM) was added to the medium, the range was 62.3-70.3 PDs (n=5) with an average increase of 5 PDs compared with the controls. This represents a 32 fold increase in cell number.

## CC(=O)NCCC(=O)N[C@@H](Cc1cnc[nH]1)C(=O)O [N-acetyl carnosine]
5 mM in medium, n=5
  Range of lifespans of populations of MRC-5 cells: 62.3-70.3 PDs
5 mM vs carnosine 20 mM, passage 55 cells, over a 43 day period
  Lifespan greater than carnosine: 6.7 PDs
5 mM, commenced at passage 55
  Lifespan of MRC-5 cells in culture, Population Doublings (PD): 15.2 PD
5 mM, n=5
  Average increase in lifespan compared with controls: 5 PDs
5 mM, passage 55 cells, over a 43 day period
  Lifespan greater than the control: 5 PDs
5 mM, worked out from the PD increase
  Increase in cell number: 32 fold
acetyl-carnosine 5 mM vs carnosine 20 mM, commenced at passage 32
  Lifespan of MRC-5 cells compared with carnosine (FIG. 2): markedly increased the lifespan
Cells exposed to supplemented media
  Increase in cell mass: 32 fold
